From PubChem BioAssay (NCI) come the findings set out here.

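A five-concentration, 48-hour dose response in 96-well plates underlies each endpoint, interpolated linearly between surrounding concentrations. Here, GI50 denotes the concentration required for 50% inhibition of growth. Definition used: TGI = concentration required for complete inhibition of growth.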

Among the test systems are SK-OV-3 ovarian; OVCAR-3 ovarian; HS 578T breast; CAKI-1 renal; HCT-116 colon; HCC-2998 colon; A549 NSCLC; SNB-75 CNS; SK-MEL-2 melanoma; PC-3 prostate.
Holding throughout (assay): inhibition of tumour cell growth, NCI panel, 48 h

For the compound `C=CC1=C(C)C2=NC1=CC1=NC(=CC3=C(C)C4=C(O)C(C(=O)OC)C(=C5NC(=C2)C(C)C5CCC(=O)OC)C4=N3)C(CC)=C1C` (stereo not given), the TGI with SK-OV-3 ovarian, in the assay with OVCAR-3 ovarian, with HS 578T breast, with CAKI-1 renal, in the assay with HCT-116 colon and with HCC-2998 colon was > 100 µM throughout. The TGI in the assay with A549 NSCLC, in the assay with SNB-75 CNS, in the assay on SK-MEL-2 melanoma and in the assay with PC-3 prostate was > 100 µM each time.

In the case of `NC(CC1=CCC=CC1)C(=O)O` (stereo not given), the TGI in the assay with SK-OV-3 ovarian, with OVCAR-3 ovarian, in the assay on HS 578T breast, in the assay with CAKI-1 renal, in the assay with HCT-116 colon and with HCC-2998 colon was > 100 µM throughout. Moreover, the TGI in the assay on A549 NSCLC, in the assay with SNB-75 CNS, in the assay on SK-MEL-2 melanoma and in the assay with PC-3 prostate was > 100 µM throughout.

For the compound `CCOC(=O)c1cc(C(=O)c2cc(OC)c(OC)c(OC)c2)n2ccccc12`, the GI50 in the assay on SK-OV-3 ovarian was 0.164 µM; in the assay with OVCAR-3 ovarian it was 33.4 nM; in the assay with HS 578T breast, 0.123 µM; in the assay with CAKI-1 renal, 0.15 µM; in the assay with HCT-116 colon, 35.3 nM; in the assay on HCC-2998 colon, 370 nM. Moreover, the GI50 in the assay with A549 NSCLC was 0.134 µM; with SNB-75 CNS, 0.0461 µM; in the assay with SK-MEL-2 melanoma it was 169 nM; in the assay with PC-3 prostate it was 105 nM. The TGI was > 100 µM in the assay on SK-OV-3 ovarian; 4.11 µM in the assay on OVCAR-3 ovarian; 46.6 µM in the assay on HS 578T breast; > 100 µM in the assay on CAKI-1 renal; > 100 µM in the assay on HCT-116 colon; > 100 µM in the assay with HCC-2998 colon. The TGI in the assay on A549 NSCLC was > 100 µM; with SNB-75 CNS, 21.5 µM; in the assay with SK-MEL-2 melanoma, > 74.8 µM; with PC-3 prostate it was > 100 µM.

On to `COc1ccccc1/C=C/C(=O)/C=C/c1ccccc1OC`, for which the GI50 in the assay with SK-OV-3 ovarian is 2.94 µM; with OVCAR-3 ovarian, 1680 nM; in the assay on HS 578T breast it was 3.4 µM; with CAKI-1 renal it was 3.16 µM; in the assay with HCT-116 colon, 1270 nM; in the assay on HCC-2998 colon, 1920 nM. In addition, the GI50 is 2.35 µM with A549 NSCLC, 2.23 µM in the assay with SNB-75 CNS, 2290 nM in the assay with SK-MEL-2 melanoma and 2260 nM with PC-3 prostate. Also, the TGI was determined as 8.66 µM in the assay on SK-OV-3 ovarian; 3.68 µM with OVCAR-3 ovarian; 39.2 µM in the assay with HS 578T breast; 7.94 µM in the assay on CAKI-1 renal; 2.62 µM with HCT-116 colon; 3.37 µM in the assay with HCC-2998 colon. Moreover, the TGI stood at 7 µM in the assay on A549 NSCLC, 11.6 µM in the assay on SNB-75 CNS, 4.95 µM with SK-MEL-2 melanoma and 7.03 µM with PC-3 prostate.

For the compound `COc1cc(OC)c(C(=O)/C=C/c2cccc(OC(C)=O)c2)cc1CC=C(C)C`, the GI50 with SK-OV-3 ovarian is 10.9 µM; with OVCAR-3 ovarian it was 3440 nM; in the assay with HS 578T breast, > 50 µM; in the assay on CAKI-1 renal, 23.2 µM; in the assay on HCT-116 colon, 3000 nM; in the assay with HCC-2998 colon, 8870 nM. For the same compound, the GI50 in the assay on A549 NSCLC was 15.2 µM; in the assay on SNB-75 CNS, 4.68 µM; with SK-MEL-2 melanoma, 8900 nM; in the assay with PC-3 prostate it was 9400 nM. The TGI was 28.2 µM in the assay with SK-OV-3 ovarian; 12.6 µM with OVCAR-3 ovarian; > 50 µM in the assay on HS 578T breast; > 50 µM in the assay on CAKI-1 renal; 9.78 µM in the assay on HCT-116 colon; 16.2 µM in the assay on HCC-2998 colon. In addition, the TGI is > 50 µM in the assay on A549 NSCLC, 11.8 µM in the assay with SNB-75 CNS, 35.6 µM in the assay on SK-MEL-2 melanoma and 44 µM with PC-3 prostate.

In the case of `Cc1c(N=Cc2ccc(N(CCC#N)CCC#N)cc2)c(=O)n(-c2ccccc2)n1C`, the TGI in the assay on SK-OV-3 ovarian, with OVCAR-3 ovarian, in the assay on HS 578T breast, in the assay with CAKI-1 renal, in the assay on HCT-116 colon and in the assay with HCC-2998 colon was > 100 µM throughout. Besides, the TGI in the assay with A549 NSCLC is > 100 µM; in the assay with SNB-75 CNS, 60.1 µM; in the assay with SK-MEL-2 melanoma, > 100 µM; in the assay on PC-3 prostate it was > 100 µM.

With `O=C(COc1cccc(/C=C2\CSc3ccccc3C2=O)c1)c1ccc(Cl)cc1`, the GI50 was 8.97 µM in the assay on SK-OV-3 ovarian; 1800 nM in the assay on OVCAR-3 ovarian; 2.74 µM in the assay with HS 578T breast; 3.97 µM in the assay on CAKI-1 renal; 689 nM with HCT-116 colon; 1470 nM with HCC-2998 colon. The GI50 in the assay with A549 NSCLC was 11.8 µM; in the assay with SNB-75 CNS, 5.04 µM; in the assay with SK-MEL-2 melanoma, 1760 nM; in the assay on PC-3 prostate, 2010 nM. The TGI in the assay on SK-OV-3 ovarian is 41.9 µM; with OVCAR-3 ovarian, 3.51 µM; with HS 578T breast it was 17.2 µM; with CAKI-1 renal, 10.1 µM; with HCT-116 colon it was 1.95 µM; in the assay with HCC-2998 colon, 2.8 µM. Further, the TGI is 65.6 µM in the assay with A549 NSCLC, 22.4 µM in the assay on SNB-75 CNS, 3.45 µM with SK-MEL-2 melanoma and 5.25 µM with PC-3 prostate.

On to `C[C@H](N)C(=O)N1C[C@H](CCCB(O)O)[C@](N)(C(=O)O)C1`, for which the GI50 in the assay with SK-OV-3 ovarian is > 100 µM; with OVCAR-3 ovarian, > 100000 nM; in the assay on HS 578T breast, > 100 µM; in the assay on CAKI-1 renal it was > 100 µM; in the assay on HCT-116 colon it was > 100000 nM; with HCC-2998 colon it was > 100000 nM. Besides, the GI50 in the assay with A549 NSCLC was > 100 µM; in the assay with SNB-75 CNS, > 100 µM; with SK-MEL-2 melanoma, > 100000 nM; with PC-3 prostate it was > 100000 nM. Further, the TGI in the assay with SK-OV-3 ovarian, in the assay with OVCAR-3 ovarian, in the assay on HS 578T breast, in the assay on CAKI-1 renal, in the assay with HCT-116 colon and in the assay on HCC-2998 colon was > 100 µM throughout. The TGI in the assay on A549 NSCLC, with SNB-75 CNS, in the assay on SK-MEL-2 melanoma and with PC-3 prostate was > 100 µM each time.
